From patent US20060052288A1, “Pharmaceutical composition for inhibiting the metastasis or preventing the recurrence of malignant tumor” (priority 2001, published 2006)

Columns and labels:
[1] = test system: H460 cells (human lung cancer); experiment: H460 metastatic models (Experiment 4); assay type: in vivo, mouse xenograft; design: key to Lymph node MI (Metastatic Incidence) / Liver MI (Metastatic Incidence) / Lung MI (Metastatic Incidence): number of animals with metastasis in the organ (out of 10); conditions: NCr nu/nu mice, 10 animals, checked day 36
Experimental: Experiment 4 (H460 Metastatic Models)
A segment (2 mm^2) of H460 cells (human lung cancer) was implanted into the left lung of 100 NCr nu/nu female mice (5 to 6 weeks old, 10 animals per group). […] On the other hand, in the control group (untreated with test compound), only a physiological saline solution was administered. The presence or absence of the metastasis of each organ was checked on the 36th day after the implantation of tumor.

[2] = test system: HT-29 cells (human colon cancer); experiment: HT-29 metastatic models, dosing from day 15 (Experiment 2); assay type: in vivo, mouse; conditions: 10 animals, checked day 84; for Other organs MI (Metastatic Incidence): Diaphragm, Abdominal cavity, Thoracic cavity; for Liver MI (Metastatic Incidence) / Lung MI (Metastatic Incidence) / Lymph node MI (Metastatic Incidence) / Number of animals with metastasis: NCr nu/nu mice
Experimental: A test compound (Compound A; the compound obtained in Preparation 1 as mentioned below, Compound B; the compound obtained in Preparation 4 as mentioned below, and Irinotechan (CPT-11)) was dissolved in a physiological saline solution, and each amount as indicated in Table 2 as mentioned below was administered intravenously to the mice on the 15th, 19th, 23rd and 25th day after the implantation of tumor. On the other hand, in the control group (untreated with test compound), only a physiological saline solution was administered. The presence or absence of the metastasis of each organ was checked on the 84th day after the implantation of tumor.

[3] = test system: M 5076 cells (mouse ovarian sarcoma cells); experiment: M 5076 liver metastatic models (survival); assay type: in vivo; conditions: for Prolongation rate of survival (%) / Survival days: BDF1 male mice; for Prolongation rate of survival (%): vs control; for Survival days: observed 120 days
Experimental: Experiment 1 (M 5076 Liver Metastatic Models)
One million of M 5076 cells (mouse ovarian sarcoma cells) were implanted into BDF1 male mice (5-weeks old, 8 animals per group) at the tail vein. […] In the control group (untreated with test compound), only a physiological saline solution was administered. The survival time (days) was measured in both the test compound-treated groups and the control group, and the prolongation rate of survival was calculated according to the following equation.

[4] = test system: HT-29 cells (human colon cancer); experiment: HT-29 metastatic models, dosing after lymph node metastasis observed (Experiment 3); assay type: in vivo; conditions: 10 animals, checked day 84; for Other organs MI (Metastatic Incidence): Diaphragm, Abdominal cavity, Thoracic cavity; for Liver MI (Metastatic Incidence) / Lung MI (Metastatic Incidence) / Lymph node MI (Metastatic Incidence) / Number of animals with metastasis: NCr nu/nu mice
Experimental: Experiment 3 (HT-29 Metastatic Models)
A segment (2 mm^2) of HT-29 cells (human colon cancer) was implanted into the vermiform appendix of 100 NCr nu/nu female mice (5 to 6 weeks old, 10 animals per group). Since the lymph node metastasis was observed on the 49th day after the implantation of tumor, a test compound (Compound A; the compound obtained in Preparation 1 as mentioned below, and Irinotechan (CPT-11)) was dissolved in a physiological saline solution, and each amount as indicated in Table 3 as mentioned below was administered intravenously to the mice on the 51st, 55th, 59th, and 63rd day after the implantation of tumor. On the other hand, in the control group (untreated with test compound), only a physiological saline solution was administered. The presence or absence of the metastasis of each organ was checked on the 84th day after the implantation of tumor.

[5] = 40 mg/kg i.v. days 14, 18, 22, 26
[6] = 80 mg/kg i.v. days 14, 18, 22, 26
[7] = 20 mg/kg i.v. days 15, 19, 23, 25
[8] = 40 mg/kg i.v. days 15, 19, 23, 25
[9] = 40 mg/kg i.v. days 51, 55, 59, 63
[10] = 5 mg/kg i.v. days 14, 18, 22, 26
[11] = 10 mg/kg i.v. days 14, 18, 22, 26
[12] = 20 mg/kg i.v. days 14, 18, 22, 26
[13] = 5 mg/kg i.v. days 15, 19, 23, 25
[14] = 10 mg/kg i.v. days 15, 19, 23, 25
[15] = 20 mg/kg i.v. days 51, 55, 59, 63
[16] = 2.5 mg/kg i.v. days 14, 18, 22, 26
[17] = 2.5 mg/kg i.v. days 15, 19, 23, 25

Molecule: CCc1c2c(nc3ccc(OC(=O)N4CCC(N5CCCCC5)CC4)cc13)-c1cc3c(c(=O)n1C2)COC(=O)[C@]3(O)CC [Irinotecan, reference compound]
- Liver MI (Metastatic Incidence) [1, 5]: 0
- Lung MI (Metastatic Incidence) [1, 5]: 1
- Lymph node MI (Metastatic Incidence) [1, 5]: 0
- Number of animals with metastasis [1, 5]: 1
- Liver MI (Metastatic Incidence) [1, 6]: 0
- Lung MI (Metastatic Incidence) [1, 6]: 0
- Lymph node MI (Metastatic Incidence) [1, 6]: 2
- Number of animals with metastasis [1, 6]: 2
- Other organs MI (Metastatic Incidence) [2, 7]: 0
- Other organs MI (Metastatic Incidence) [2, 8]: 1
- Liver MI (Metastatic Incidence) [2, 7]: 2
- Lung MI (Metastatic Incidence) [2, 7]: 2
- Lymph node MI (Metastatic Incidence) [2, 7]: 9
- Number of animals with metastasis [2, 7]: 9
- Liver MI (Metastatic Incidence) [2, 8]: 0
- Lung MI (Metastatic Incidence) [2, 8]: 1
- Lymph node MI (Metastatic Incidence) [2, 8]: 7
- Number of animals with metastasis [2, 8]: 7
- Prolongation rate of survival (%) ([3]; 80 mg/kg i.v. on days 4, 8, 12): 50.0%
- Survival days ([3]; 80 mg/kg i.v. on days 4, 8, 12 after implantation): 22.50 days
- Other organs MI (Metastatic Incidence) [4, 9]: 1
- Liver MI (Metastatic Incidence) [4, 9]: 1
- Lung MI (Metastatic Incidence) [4, 9]: 0
- Lymph node MI (Metastatic Incidence) [4, 9]: 8
- Number of animals with metastasis [4, 9]: 8

Molecule: CM-dextran-7-ethyl-10-[3′-(glycyl-glycyl-glycylamino)propyloxy]-(20S)-camptothecin [Compound A]
- Liver MI (Metastatic Incidence) [1, 10]: 0
- Lung MI (Metastatic Incidence) [1, 10]: 1
- Lymph node MI (Metastatic Incidence) [1, 10]: 2
- Number of animals with metastasis [1, 10]: 2
- Liver MI (Metastatic Incidence) [1, 11]: 0
- Lung MI (Metastatic Incidence) [1, 11]: 0
- Lymph node MI (Metastatic Incidence) [1, 11]: 1
- Number of animals with metastasis [1, 11]: 1
- Liver MI (Metastatic Incidence) [1, 12]: 0
- Lung MI (Metastatic Incidence) [1, 12]: 2
- Lymph node MI (Metastatic Incidence) [1, 12]: 2
- Number of animals with metastasis [1, 12]: 3
- Liver MI (Metastatic Incidence) [1, 5]: 0
- Lung MI (Metastatic Incidence) [1, 5]: 0
- Lymph node MI (Metastatic Incidence) [1, 5]: 1
- Number of animals with metastasis [1, 5]: 1
- Other organs MI (Metastatic Incidence) [2, 13]: 2
- Other organs MI (Metastatic Incidence) [2, 14]: 0
- Other organs MI (Metastatic Incidence) [2, 7]: 0
- Other organs MI (Metastatic Incidence) [2, 8]: 0
- Liver MI (Metastatic Incidence) [2, 13]: 0
- Lung MI (Metastatic Incidence) [2, 13]: 1
- Lymph node MI (Metastatic Incidence) [2, 13]: 6
- Number of animals with metastasis [2, 13]: 6
- Liver MI (Metastatic Incidence) [2, 14]: 0
- Lung MI (Metastatic Incidence) [2, 14]: 2
- Lymph node MI (Metastatic Incidence) [2, 14]: 8
- Number of animals with metastasis [2, 14]: 8
- Liver MI (Metastatic Incidence) [2, 7]: 0
- Lung MI (Metastatic Incidence) [2, 7]: 1
- Lymph node MI (Metastatic Incidence) [2, 7]: 1
- Number of animals with metastasis [2, 7]: 2
- Liver MI (Metastatic Incidence) [2, 8]: 0
- Lung MI (Metastatic Incidence) [2, 8]: 0
- Lymph node MI (Metastatic Incidence) [2, 8]: 0
- Number of animals with metastasis [2, 8]: 0
- Prolongation rate of survival (%) ([3]; 12.5 mg/kg i.v. on days 4, 8, 12): 150.5%
- Survival days ([3]; 12.5 mg/kg i.v. on days 4, 8, 12 after implantation): 37.57 days
- Prolongation rate of survival (%) ([3]; 25 mg/kg i.v. on days 4, 8, 12): 187.5%
- Survival days ([3]; 25 mg/kg i.v. on days 4, 8, 12 after implantation): 43.13 days
- Prolongation rate of survival (%) ([3]; 50 mg/kg i.v. on days 4, 8, 12): 224.8%
- Survival days ([3]; 50 mg/kg i.v. on days 4, 8, 12 after implantation): 48.71 days
- activity of prolonging lifetime ([3]; M5076 liver metastatic models, summary in words): excellent activity of prolonging lifetime
- Other organs MI (Metastatic Incidence) [4, 15]: 1
- Other organs MI (Metastatic Incidence) [4, 9]: 2
- Liver MI (Metastatic Incidence) [4, 15]: 0
- Lung MI (Metastatic Incidence) [4, 15]: 0
- Lymph node MI (Metastatic Incidence) [4, 15]: 2
- Number of animals with metastasis [4, 15]: 3
- Liver MI (Metastatic Incidence) [4, 9]: 0
- Lung MI (Metastatic Incidence) [4, 9]: 0
- Lymph node MI (Metastatic Incidence) [4, 9]: 0
- Number of animals with metastasis [4, 9]: 2

Molecule: carboxymethyldextran-polyalcohol-(1S,9S)-1-(glycyl-glycyl-L-phenylalanyl-glycylamino)-9-ethyl-5-fluoro-2,3-dihydro-9-hydroxy-4-methyl-1H,12H-benzo[de]pyrano[3′,4′:6,7] indolizino[1,2-b]quinoline-10,13(9H,15H)-dione [Compound B]
- Liver MI (Metastatic Incidence) [1, 16]: 0
- Lung MI (Metastatic Incidence) [1, 16]: 0
- Lymph node MI (Metastatic Incidence) [1, 16]: 1
- Number of animals with metastasis [1, 16]: 1
- Liver MI (Metastatic Incidence) [1, 10]: 0
- Lung MI (Metastatic Incidence) [1, 10]: 1
- Lymph node MI (Metastatic Incidence) [1, 10]: 2
- Number of animals with metastasis [1, 10]: 2
- Other organs MI (Metastatic Incidence) [2, 17]: 1
- Other organs MI (Metastatic Incidence) [2, 13]: 0
- Liver MI (Metastatic Incidence) [2, 17]: 1
- Lung MI (Metastatic Incidence) [2, 17]: 1
- Lymph node MI (Metastatic Incidence) [2, 17]: 6
- Number of animals with metastasis [2, 17]: 6
- Liver MI (Metastatic Incidence) [2, 13]: 0
- Lung MI (Metastatic Incidence) [2, 13]: 0
- Lymph node MI (Metastatic Incidence) [2, 13]: 0
- Number of animals with metastasis [2, 13]: 0
